Key:
Bel-7402 = test: Antiproliferative activity against human Bel7402 cells after 72 hrs; type: functional, cell-based; conditions: Bel-7402, 72 h
[1] = Antiproliferative activity against human ECA109 cells after 72 hrs; type: functional, cell-based; conditions: ECa-109, 72 h
MCF7 = test: Antiproliferative activity against human MCF7 cells after 72 hrs; type: functional, cell-based; conditions: MCF7, 72 h
PC-3 [2] = test: Antiproliferative activity against human PC3 cells after 72 hrs; type: functional, cell-based; conditions: PC-3, 72 h
HL-60 = test: Antiproliferative activity against human HL60 cells after 72 hrs; type: functional, cell-based; conditions: HL-60, 72 h
[3] = Inhibition of CDK1/Cyclin B; design: species or system Homo sapiens
A549 = test: Antiproliferative activity against human A549 cells after 72 hrs; type: functional, cell-based; conditions: A549, 72 h
PC-3 [4] = test: Cell cycle arrest in human PC3 cells assessed as accumulation at G2/M phase at 7.2 uM after 24 hrs relative to control by flow cytometry; type: functional
PC-3 [5] = test: Cell cycle arrest in human PC3 cells assessed as accumulation at G2/M phase at 7.2 uM after 12 hrs relative to control by flow cytometry; type: functional
PC-3 [6] = test: Cell cycle arrest in human PC3 cells assessed as accumulation at SubG0 phase at 7.2 uM after 24 hrs relative to control by flow cytometry; type: functional
PC-3 [7] = test: Cell cycle arrest in human PC3 cells assessed as accumulation at G0/G1 phase at 7.2 uM after 24 hrs relative to control by flow cytometry; type: functional
PC-3 [8] = test: Cell cycle arrest in human PC3 cells assessed as accumulation at SubG0 phase at 7.2 uM after 12 hrs relative to control by flow cytometry; type: functional
PC-3 [9] = test: Cell cycle arrest in human PC3 cells assessed as accumulation at G0/G1 phase at 7.2 uM after 12 hrs relative to control by flow cytometry; type: functional
PC-3 [10] = test: Effect on morphology of human PC3 cells assessed as increase in chromatin condensation by staining method; type: functional, cell-based
PC-3 [11] = test: Cell cycle arrest in human PC3 cells assessed as accumulation at S phase at 7.2 uM after 24 hrs relative to control by flow cytometry; type: functional
PC-3 [12] = test: Cell cycle arrest in human PC3 cells assessed as accumulation at S phase at 7.2 uM after 12 hrs relative to control by flow cytometry; type: functional

SMILES	IC50 (Bel-7402) [µM]	IC50 (MCF7) [µM]	IC50 (PC-3 [2]) [µM]	IC50 (HL-60) [µM]	IC50 [3] [µM]	IC50 (A549) [µM]	IC50 [1] [µM]	Activity (PC-3 [4]) [%]	Activity (PC-3 [5]) [%]	Activity (PC-3 [6]) [%]	Activity (PC-3 [7]) [%]	Activity (PC-3 [8]) [%]	Activity (PC-3 [9]) [%]	Activity (PC-3 [10])	Activity (PC-3 [11]) [%]	Activity (PC-3 [12]) [%]
COC(=O)CN(C)Cc1c(OC)cc(OC)c(C(=O)/C=C/c2ccccc2Cl)c1O	8.5	10.6	7.2	0.4	> 3	9.1	13.9									
COc1cc(OC)c(C(=O)/C=C/c2ccccc2Cl)c(O)c1CN(C)CC(=O)O	35.2	73.2	12.5	80.3		79.4	44.4									
COc1cc(OC)c(C(=O)/C=C/c2ccccc2Cl)c(O)c1CN(C)CCOC(C)=O	8.1	5.1	10	10.8	0.324	3.3	3.9									
COc1cc(OC)c(C(=O)/C=C/c2ccccc2Cl)c(O)c1CN(C)CCO	64.4	10	6.2	19.7	> 3	6.9	0.8									
COc1cc(OC)c(C(=O)/C=C/c2ccccc2Cl)c(O)c1CN(C)CCCN(C)C	30.9	3.2	14.5	11.4	0.468	3.1	3.8									
CCN(CC)Cc1c(OC)cc(OC)c(C(=O)/C=C/c2ccccc2Cl)c1O	6.7	2.7	4.2	30.9	0.0497	3.6	7.1									
COc1cc(OC)c(C(=O)/C=C/c2ccccc2Cl)c(O)c1CN1CCOCC1	22.7	17.2	17.2	6.9	0.0475	4.8	6.2									
COc1cc(OC)c(C(=O)/C=C/c2ccccc2Cl)c(O)c1CN1CCN(C)CC1	7.6	5.2	4.7	10.9	> 3	4.1	7.1									
COc1cc(OC)c(C(=O)/C=C/c2ccccc2Cl)c(O)c1CN(C)C	21.8	0.09	0.4	19.2	0.503	2.1	2.6									
CCN(C)Cc1c(OC)cc(OC)c(C(=O)/C=C/c2ccccc2Cl)c1O	23.3	6.8	0.003	0.2	0.0758	1.3	1.4									

More lines, main results first:

IC50 (Bel-7402) [µM]	IC50 (MCF7) [µM]	IC50 (PC-3 [2]) [µM]	IC50 (HL-60) [µM]	IC50 [3] [µM]	IC50 (A549) [µM]	SMILES	IC50 [1] [µM]	Activity (PC-3 [4]) [%]	Activity (PC-3 [5]) [%]	Activity (PC-3 [6]) [%]	Activity (PC-3 [7]) [%]	Activity (PC-3 [8]) [%]	Activity (PC-3 [9]) [%]	Activity (PC-3 [10])	Activity (PC-3 [11]) [%]	Activity (PC-3 [12]) [%]
> 150	124	42	26.9	> 3	> 150	COc1cc(O)c2c(=O)cc(-c3ccccc3Cl)oc2c1CN1CCOCC1	86.6									
3.1	2.6	1.7	3.6	0.0569	2.8	COc1cc(OC)c(C(=O)/C=C/c2ccccc2Cl)c(O)c1CN1CCCCC1	2.5	9.8	14	34.1	60.7	6.1	60.2	Dose-dependent effect	29.9	25.8
118		63.4	48.1	0.138	45.5	COc1cc(O)c2c(=O)cc(-c3ccccc3Cl)oc2c1CN1CCCCC1	21.5									
6.8	3.9	3.1	14.2	1.25	2.6	COc1cc(OC)c(C(=O)/C=C/c2ccccc2Cl)c(O)c1CN1CCCC1	6.9									
61.3		57.8	67.3	> 3	> 150	COc1cc(OC)c2c(=O)cc(-c3ccccc3Cl)oc2c1CN1CCOCC1	61.3									
44.2	23.7	15.5	34.5	0.155	> 150	COc1cc(OC)c2c(=O)cc(-c3ccccc3Cl)oc2c1CN1CCCCC1	23.7									

From ChEMBL document CHEMBL1138403, “Nitrogen-containing flavonoids as CDK1/Cyclin B inhibitors: design, synthesis, and biological evaluation” (Bioorg Med Chem Lett, 2007)
